In patent US20230346769A1, “USE OF SIMPLE ACYCLIC POLYAMINES FOR THE TREATMENT OF DISEASES CAUSED BY PARASITES OF THE GENUS LEISHMANIA” (Universidad De Granada, priority 2020, published 2023):
“Also recorded” adds a separate entry of the source.

How the values were obtained:
[1] = tested on: FeSOD of promastigote forms of L.donovani; assay: In vitro inhibition of FeSOD (NBT reduction); format: biochemical, Leishmania donovani
Procedure: Methodology: Compounds that were selected from the leishmanicidal activity shown in previous experiments were evaluated as inhibitors of FeSOD enzyme activity, which is unique to the kinetoplastid parasites to which Leishmania belongs. Being exclusive, it is absent in the vertebrate host, since these usually have an analogous form of that enzyme, but complexed to a copper or zinc atom (Cu/ZnSOD). For this reason, this enzyme is a therapeutic target for the design of new drugs, since the capture of the metal ion by complexing mechanisms can inactivate the enzyme and compromise the survival of the parasite with the appearance of free radicals.
Inhibition caused by the novel compounds on FeSOD/ Cu-Zn SOD activity was quantified on the spectrophotometer at 560 nm according to the technique described by [W F. Beyer. I. Fridovich. Anal Biochem. 1987. […]
Briefly, the cultured parasites as described in Example 1 underwent centrifugation, the pellet was resuspended (0.5 - 0.6 g/ml) in 3 ml of STE buffer (0.25 M. Tris-HCI 25 mM sucrose. 1 M EDTA. pH 7.8) and underwent 3 cycles of sonication from 30 s at 60 V. Then, it was centrifuged at 1500 g for 10 min at 4° C. and the pellet was washed 3 times with ice-cooled STE buffer. […] Protein concentrations were determined by means of the Bradford method (Sigma-Aldrich) using bovine serum albumin as standard. […]

[2] = target: T1, CuZnSOD of human erythrocytes (Homo sapiens, UniProt P00441); assay: In vitro inhibition of CuZnSOD (NBT reduction); format: biochemical
T1 construct: the Cu/Zn-superoxide dismutase of human red blood cells from Boehringer Mannheim was used; purchased Boehringer Mannheim; host or cells: human red blood cells (erythrocytes)
T1 sequence (P00441 whole entry): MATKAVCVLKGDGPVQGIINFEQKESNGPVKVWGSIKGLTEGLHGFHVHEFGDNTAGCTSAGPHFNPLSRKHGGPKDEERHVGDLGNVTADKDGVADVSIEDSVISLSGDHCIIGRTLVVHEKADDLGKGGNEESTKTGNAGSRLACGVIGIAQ
Excerpt: To conduct this assay, the Cu/Zn-superoxide dismutase of human red blood cells from Boehringer Mannheim was used, whilst the coenzymes and substrates were obtained from Sigma-Aldrich.
Inhibition caused by the novel compounds on FeSOD/ Cu-Zn SOD activity was quantified on the spectrophotometer at 560 nm according to the technique described by [W F. Beyer. I. Fridovich. Anal Biochem. 1987. 161: 559-66] based on the determination of the reduction of NBT (nitro blue tetrazolium) by superoxide ions and which the group of the present inventors has developed for the assay in trypanosomatides, being a routine technique in the laboratory of said group [F. Luque. et. al. Comp. Biochem. Physiol. C Toxicol. Pharmacol. 2000. […]
Briefly, the cultured parasites as described in Example 1 underwent centrifugation, the pellet was resuspended (0.5 - 0.6 g/ml) in 3 ml of STE buffer (0.25 M. Tris-HCI 25 mM sucrose. 1 M EDTA. pH 7.8) and underwent 3 cycles of sonication from 30 s at 60 V. Then, it was centrifuged at 1500 g for 10 min at 4° C. and the pellet was washed 3 times with ice-cooled STE buffer. […] Protein concentrations were determined by means of the Bradford method (Sigma-Aldrich) using bovine serum albumin as standard. […] A first measurement of the absorbance at 560 nm was made on a spectrophotometer and, after 10 minutes under light and under stirring conditions, the absorbance was re-determined. […]

L.infantum promastigotes = assay: Alteration of production and excretion of metabolites (1H NMR); format: cell-based, Leishmania infantum; settings: compound at IC25, 72 h, versus control
Procedure: (§1) Methodology: Promastigotes from the three species studied were used for this study. They were left to grow in a culture flask and subsequently transferred to a 25 ml capacity conical bottom flask (steriling) so that there were 5×10^4 parasites/ml in each one. The amount of compound needed to reach IC25 of each product was added and completed with fresh culture medium to reach a final volume of 3 ml and incubated at 28° C. for 72 h. After that time, the flasks were centrifuged at 400 g for 10 minutes, and 2 ml of supernatant was transferred to Eppendorf® tubes. Next, they were analysed using proton nuclear resonance and the spectra were analysed with the Mestre Nova® software to obtain the metabolite production and excretion graphs. From these graphs, it can be inferred which enzyme has seen its activity altered by action of the compounds, depending on the increase or decrease of the metabolite produced by it.
(§2) Both the decrease and increase in the metabolites analysed can be positive effects, indicating a malfunctioning of the metabolic pathway.

Leishmania donovani = assay: Mitochondrial membrane potential by rhodamine staining and flow cytometry; format: cell-based; settings: L.donovani, compound at IC25, 72 h
Procedure: Methodology: Similar to the assay of Example 5, an amount of 5×10^4 parasites/ml of Leishmania donovani was re-treated with the IC25 of compounds 2 and 4, this time in a final volume in the 5 ml steriling conical bottom flasks. Again, after 72 h of incubation under the same conditions as described in Example 5, the flasks were centrifuged at 400 g for 10 minutes and the pellet was washed by resuspending with PBS three times. The pellet was resuspended with 0.5 mL of PBS with 10 µg/mL rhodamine after the last wash. A cytometry analysis was performed after 20 minutes of action of the rhodamine.

L.donovani promastigotes = assay: Alteration of production and excretion of metabolites (1H NMR); format: cell-based, Leishmania donovani; settings: compound at IC25, 72 h
Procedure: as §1, §2

| SMILES | Concentration for 50% inhibition (IC50) of FeSOD of L.donovani [1] | Concentration for 50% inhibition (IC50) of CuZnSOD of human erythrocytes [2] | Succinate production (L.infantum promastigotes) | Effect on mitochondrial membrane potential (Leishmania donovani) | Production and excretion of metabolites (metabolism, other metabolites analysed) (L.donovani promastigotes) | Succinate production (L.donovani promastigotes; versus control) |
| --- | --- | --- | --- | --- | --- | --- |
| CN(C)CCNCc1ccccn1 [Compound 4, 1-(2-pyridyl)-5-methyl-2,5-diazahexane] | lower than that necessary for the enzyme of human erythrocytes; also recorded: showed ability to inhibit FeSOD | high IC50 value | increase in succinate production | only a slight depolarisation | – | – |
| CNCCNCc1cccnc1 [Compound 2, 1-{3-pyridyl)-2,5-diazahexane] | lower than that necessary for the enzyme of human erythrocytes; also recorded: showed ability to inhibit FeSOD; also recorded: low IC50 value | – | – | only a slight depolarisation | all the metabolites analysed increase | increase in succinate production |
